Results from patent US7932036B1, “Methods of determining acute myeloid leukemia response to treatment with farnesyltransferase” (Veridex, LLC, priority 2008, dated 2011).

Legend:
[1] = test system: previously untreated, poor-risk acute myeloid leukemia (AML); assay: Phase 2 study of tipifarnib in older adults with previously untreated, poor-risk AML: clinical response and overall survival; type: in vivo, human
Source text: The current study utilized 67 bone marrow samples collected from an open label, multicenter, non-comparative phase 2 study investigating the efficacy and safety of farnesyltransferase inhibition with tipifarnib (R115777, ZARNESTRA®) in 158 older adults with previously untreated, poor-risk AML. The clinical results have been published elsewhere. Lancet et al. (2006).
Lancet et al. (2006). Briefly, HI was defined as any bone marrow blast count less than 5% or a reduction in bone marrow blasts by at least half. Progressive disease (PD) was defined as either >50% increase in bone marrow or circulating blast % from baseline, or new appearance of circulating blasts (on at least 2 consecutive occasions). Stable disease (SD) was defined as any response not meeting CR, PR, HI, or PD criteria.
This study examined gene expression profiles of leukemic bone marrow samples from patients enrolled in a Phase 2 clinical trial of the farnesyltransferase inhibitor tipifarnib in elderly patients with previously untreated poor-risk acute myelogenous leukemia. Lancet et al. (2006). Bone marrow from 67 patients was collected before treatment with tipifarnib and leukemic myeloid cells were enriched by Ficoll-density centrifugation (Table 1). Good quality total RNA from 13 responders (9 CR, 4 HI), 8 stable disease and 13 progressive disease patients was amplified, labeled, and hybridized to the Affymetrix U133A GeneChip. A total of 30 samples were evaluated by qPCR for validation of specific genes and 32 samples were evaluated for N-Ras mutational status.

[2] = test system: relapsed or refractory AML; assay: Independent set of 54 relapsed/refractory AML patients treated with tipifarnib; type: in vivo, human; details: for difference in overall survival between predicted responders and progressors: relapsed/refractory AML
Source text: We next performed external validation of the TSP classifier in an independent microarray dataset comprising of 54 relapsed/refractory AML patient samples. 20070048782. Importantly, a diagnostic assay that aims to predict response to a cancer therapy should have a high sensitivity (and negative predictive value) since it is important to capture as many potential responders as possible. Therefore, to define an appropriate cutoff for testing the TSP classifier we considered the need to obtain a high sensitivity of predicting responders while maintaining an acceptable level of specificity. In the training set, the level of specificity that could be achieved ranged from approximately 30% to 100% when the sensitivity was set at 100% to 80%, respectively. To ensure the classifier would predict as many responders as possible we tested a conservative cutoff that provided a specificity of approximately 60% in the training set. When this cutoff was applied to the independent testing set of relapsed/refractory AML, the RASGRP1:APTX gene classifier stratified responders with 92% NPV and 27.6% PPV (compared to 18.5% prevalence) (FIG. 3C). The associated odds ratio for being a responder was 4.38.
In the absence of a larger independent set of newly diagnosed AML samples we also utilized 54 relapsed or refractory AML samples from our previous investigation as an independent testing set (20070048782). […] Since the prevalence of responders in that dataset was 18% this represents an improvement of overall response of approximately 50%. […] Importantly we found no association with the two-gene classifier and patient prognosis in an independent set of AML patients who were treated with chemotherapeutics. […] Further work needs to be done to clarify whether the RASGRP1:APTX expression ratio has utility for other classes of FTIs.

[3] = Kaplan Meier, RASGRP1 gene classifier, newly diagnosed AML (FIG. 1B)
[4] = RASGRP1:APTX qPCR classifier, cut-point 0, 30 newly diagnosed AML samples

Cn1cncc1[C@@](N)(c1ccc(Cl)cc1)c1ccc2c(c1)c(-c1cccc(Cl)c1)cc(=O)n2C [tipifarnib]
median overall survival of the responders [1, 3]: 386 days
median overall survival of those with progressive disease [1, 3]: 68 days
median overall survival of the predicted resistant patients [1, 4]: 82 days
median overall survival of those classified as responders [1, 4]: 295 days
difference in overall survival between predicted responders and non-responders ([1]; RASGRP1:APTX top scoring pair, training set, newly diagnosed AML): 357 days
prevalence of responders ([2]; 54 relapsed/refractory AML patient samples): 18%
difference in overall survival between predicted responders and progressors ([2]; RASGRP1:APTX TSP classifier): 98 days
difference in overall survival between predicted responders and progressors ([2]; RASGRP1 alone): 56 days
median overall survival of predicted responders versus patients predicted to be resistant ([2]; two-gene classifier, relapsed or refractory AML): approximately 3 fold
